Assay results published in the NIST ThermoML archive (doi:10.1016/j.jct.2008.01.018).

Assay: mn = molality of the nth substance listed, in mol/kg
Details: 101 kPa, Liquid; for speed of sound: Sing-around technique in a fixed-path interferometer; for molar conductivity: Alternating current cell with electrodes

O=P([O-])(O)O.[Na+] [sodium dihydrogen phosphate] + O
Details	mass density [kg/m3]	molar conductivity [S·m2/mol]	speed of sound [m/s]
283.15 K, m1 = 0.0343	1002.89	–	1451.8
283.15 K, m1 = 0.0484	1004.16	–	1453.5
283.15 K, m1 = 0.1399	1012.4	–	1463.6
283.15 K, m1 = 0.167	1014.82	–	1466.5
283.15 K, m1 = 0.1967	1017.47	–	1469.7
283.15 K, m1 = 0.2231	1019.84	–	1472.6
283.15 K, m1 = 0.2506	1022.23	–	1475.5
283.15 K, m1 = 0.3229	1028.59	–	1483.2
283.15 K, m1 = 0.3586	1031.67	–	1486.9
283.15 K, m1 = 0.4346	1038.07	–	1494.7
283.15 K, m1 = 0.5108	1044.45	–	1502.2
283.15 K, m1 = 0.5812	1050.36	–	1509.2
283.15 K, m1 = 0.6658	1057.33	–	1517.5
283.15 K, m1 = 0.7462	1063.82	–	1525.3
283.15 K, m1 = 0.9163	1077.42	–	1541.5
283.15 K, m1 = 1.093	1091.46	–	1558.4
283.15 K, m1 = 1.262	1104.21	–	1573.7
283.15 K, m1 = 1.451	1117.95	–	1590.5
283.15 K, m1 = 1.758	1139.71	–	1617
283.15 K, m1 = 2.041	1159.21	–	1641.2
283.15 K, m1 = 2.374	1181.48	–	1669.2
283.15 K, m1 = 2.747	1205.29	–	1699.5
283.15 K, m1 = 3.115	1226.77	–	1727.2
283.15 K, m1 = 3.512	1250.32	–	1758.2
288.15 K, m1 = 0.0343	1002.25	–	1470
288.15 K, m1 = 0.0484	1003.5	–	1471.6
288.15 K, m1 = 0.1399	1011.65	–	1481.2
288.15 K, m1 = 0.167	1014.03	–	1484.1
288.15 K, m1 = 0.1967	1016.66	–	1487.2
288.15 K, m1 = 0.2231	1019	–	1490
288.15 K, m1 = 0.2506	1021.37	–	1492.8
288.15 K, m1 = 0.3229	1027.65	–	1500.2
288.15 K, m1 = 0.3586	1030.7	–	1503.7
288.15 K, m1 = 0.4346	1037.04	–	1511.1
288.15 K, m1 = 0.5108	1043.36	–	1518.4
288.15 K, m1 = 0.5812	1049.21	–	1525.2
288.15 K, m1 = 0.6658	1056.12	–	1533.1
288.15 K, m1 = 0.7462	1062.54	–	1540.5
288.15 K, m1 = 0.9163	1076.03	–	1556.1
288.15 K, m1 = 1.093	1089.96	–	1572.3
288.15 K, m1 = 1.262	1102.62	–	1587
288.15 K, m1 = 1.451	1116.26	–	1602.9
288.15 K, m1 = 1.758	1137.89	–	1628.3
288.15 K, m1 = 2.041	1157.28	–	1651.4
288.15 K, m1 = 2.374	1179.42	–	1678.2
288.15 K, m1 = 2.747	1203.12	–	1707.2
288.15 K, m1 = 3.115	1224.51	–	1733.6
288.15 K, m1 = 3.512	1247.97	–	1763.3
293.15 K, m1 = 0.0343	1001.32	–	1486
293.15 K, m1 = 0.0484	1002.56	–	1487.6
293.15 K, m1 = 0.1399	1010.62	–	1496.9
293.15 K, m1 = 0.167	1012.98	–	1499.7
293.15 K, m1 = 0.1967	1015.58	–	1502.7
293.15 K, m1 = 0.2231	1017.9	–	1505.3
293.15 K, m1 = 0.2506	1020.25	–	1508
293.15 K, m1 = 0.3229	1026.47	–	1515.1
293.15 K, m1 = 0.3586	1029.5	–	1518.5
293.15 K, m1 = 0.4346	1035.78	–	1525.6
293.15 K, m1 = 0.5108	1042.04	–	1532.6
293.15 K, m1 = 0.5812	1047.85	–	1539.1
293.15 K, m1 = 0.6658	1054.7	–	1546.8
293.15 K, m1 = 0.7462	1061.08	–	1553.9
293.15 K, m1 = 0.9163	1074.46	–	1568.9
293.15 K, m1 = 1.093	1088.3	–	1584.3
293.15 K, m1 = 1.262	1100.87	–	1598.5
293.15 K, m1 = 1.451	1114.43	–	1613.8
293.15 K, m1 = 1.758	1135.93	–	1638.1
293.15 K, m1 = 2.041	1155.22	–	1660.2
293.15 K, m1 = 2.374	1177.26	–	1685.9
293.15 K, m1 = 2.747	1200.86	–	1713.7
293.15 K, m1 = 3.115	1222.16	–	1739
293.15 K, m1 = 3.512	1245.55	–	1767.4
298.15 K, m1 = 0.0207	–	0.00762	–
298.15 K, m1 = 0.0343	1000.13	–	1500.2
298.15 K, m1 = 0.0415	–	0.00723	–
298.15 K, m1 = 0.0484	1001.36	–	1501.7
298.15 K, m1 = 0.0697	–	0.00683	–
298.15 K, m1 = 0.1051	–	0.00655	–
298.15 K, m1 = 0.1397	–	0.00634	–
298.15 K, m1 = 0.1399	1009.35	–	1510.6
298.15 K, m1 = 0.167	1011.69	–	1513.2
298.15 K, m1 = 0.1901	–	0.0061	–
298.15 K, m1 = 0.1967	1014.27	–	1516.2
298.15 K, m1 = 0.2231	1016.57	–	1518.7
298.15 K, m1 = 0.2357	–	0.0059	–
298.15 K, m1 = 0.2506	1018.89	–	1521.3
298.15 K, m1 = 0.2947	–	0.00572	–
298.15 K, m1 = 0.3229	1025.07	–	1528.2
298.15 K, m1 = 0.3516	–	0.00553	–
298.15 K, m1 = 0.3586	1028.07	–	1531.5
298.15 K, m1 = 0.433	–	0.00533	–
298.15 K, m1 = 0.4346	1034.3	–	1538.3
298.15 K, m1 = 0.5108	1040.52	–	1545
298.15 K, m1 = 0.5113	–	0.00517	–
298.15 K, m1 = 0.5812	1046.29	–	1551.3
298.15 K, m1 = 0.5842	–	0.00496	–
298.15 K, m1 = 0.653	–	0.00484	–
298.15 K, m1 = 0.6658	1053.09	–	1558.7
298.15 K, m1 = 0.6999	–	0.00475	–
298.15 K, m1 = 0.7462	1059.42	–	1565.5
298.15 K, m1 = 0.7919	–	0.00457	–
298.15 K, m1 = 0.9163	1072.73	–	1579.9
298.15 K, m1 = 0.9206	–	0.00436	–
298.15 K, m1 = 1.093	1086.48	–	1594.8
298.15 K, m1 = 1.175	–	0.00398	–
298.15 K, m1 = 1.18	–	0.00398	–
298.15 K, m1 = 1.262	1098.98	–	1608.4
298.15 K, m1 = 1.447	–	0.00367	–
298.15 K, m1 = 1.451	1112.46	–	1623.1
298.15 K, m1 = 1.758	1133.86	–	1646.4
298.15 K, m1 = 1.794	–	0.00329	–
298.15 K, m1 = 2.041	1153.06	–	1667.7
298.15 K, m1 = 2.079	–	0.00303	–
298.15 K, m1 = 2.374	1175	–	1692.3
298.15 K, m1 = 2.396	–	0.00276	–
298.15 K, m1 = 2.398	–	0.00278	–
298.15 K, m1 = 2.747	1198.51	–	1718.9
298.15 K, m1 = 3.115	1219.74	–	1743.2
298.15 K, m1 = 3.512	1243.05	–	1770.5
303.15 K, m1 = 0.0343	998.703	–	1512.4
303.15 K, m1 = 0.0484	999.924	–	1513.9
303.15 K, m1 = 0.1399	1007.86	–	1522.5
303.15 K, m1 = 0.167	1010.18	–	1525.1
303.15 K, m1 = 0.1967	1012.74	–	1527.9
303.15 K, m1 = 0.2231	1015.02	–	1530.4
303.15 K, m1 = 0.2506	1017.33	–	1532.9
303.15 K, m1 = 0.3229	1023.47	–	1539.5
303.15 K, m1 = 0.3586	1026.45	–	1542.6
303.15 K, m1 = 0.4346	1032.64	–	1549.3
303.15 K, m1 = 0.5108	1038.82	–	1555.8
303.15 K, m1 = 0.5812	1044.55	–	1561.8
303.15 K, m1 = 0.6658	1051.31	–	1568.9
303.15 K, m1 = 0.7462	1057.61	–	1575.5
303.15 K, m1 = 0.9163	1070.83	–	1589.4
303.15 K, m1 = 1.093	1084.51	–	1603.7
303.15 K, m1 = 1.262	1096.94	–	1616.8
303.15 K, m1 = 1.451	1110.36	–	1631
303.15 K, m1 = 1.758	1131.66	–	1653.4
303.15 K, m1 = 2.041	1150.78	–	1673.9
303.15 K, m1 = 2.374	1172.65	–	1697.5
303.15 K, m1 = 2.747	1196.07	–	1723.2
303.15 K, m1 = 3.115	1217.23	–	1746.5
303.15 K, m1 = 3.512	1240.48	–	1772.8
